molecular target: purified human MMP-12 enzyme (Homo sapiens, UniProt P39900); test: MMP-12 FRET assay; type: biochemical; details: substrate 20 μM, room temperature
Method in brief: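 Initial fluorescence rate (325/395 nm) of cleavage of MCA-Pro-Leu-Gly-Leu-Dpa(DNP)-Ala-Arg, 20 μM final, was followed for 30 min at room temperature after a 30 min enzyme–compound preincubation. Buffer: 50 mM HEPES pH 7.4, 100 mM NaCl, 5 mM CaCl2, 0.005% Brij-35, with 10% final DMSO. IC50 came from a Hill-type fit of rate versus inhibitor concentration.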

purified human MMP-12 enzyme, sequence (P39900 106-470): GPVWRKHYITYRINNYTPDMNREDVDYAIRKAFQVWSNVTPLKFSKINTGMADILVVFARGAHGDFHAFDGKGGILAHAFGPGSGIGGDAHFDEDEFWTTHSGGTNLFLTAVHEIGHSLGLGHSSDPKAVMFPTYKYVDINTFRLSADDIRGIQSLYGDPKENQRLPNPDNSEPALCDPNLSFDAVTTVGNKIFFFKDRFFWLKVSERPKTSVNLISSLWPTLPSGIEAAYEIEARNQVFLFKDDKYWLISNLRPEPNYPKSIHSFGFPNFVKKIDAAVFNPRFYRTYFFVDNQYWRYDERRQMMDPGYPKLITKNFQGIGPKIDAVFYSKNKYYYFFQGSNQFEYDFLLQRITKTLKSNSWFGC

Structure (SMILES) | IC50 [nM]
CC(C)[C@H](NS(=O)(=O)c1ccc2c(c1)oc1ccc(C(=N)N(C)C(C)C)cc12)C(=O)O [Compound 110, (S)-2-(8-(N-isopropyl-N-methylcarbamimidoyl)dibenzo[b,d]furan-3-sulfonamido)-3-methylbutanoic acid] | 425
CC(C)[C@H](NS(=O)(=O)c1ccc2c(c1)sc1ccc(-c3ccco3)cc12)C(=O)O [Compound 53, (S)-2-(8-(furan-2-yl)dibenzo[b,d]thiophene-3-sulfonamido)-3-methylbutanoic acid] | 43
Cc1n[nH]c(C)c1-c1ccc2sc3cc(S(=O)(=O)N[C@H](C(=O)O)C(C)C)ccc3c2c1 [Compound 41, (S)-2-(8-(3,5-dimethyl-1H-pyrazol-4-yl)dibenzo[b,d]thiophene-3-sulfonamido)-3-methylbutanoic acid] | 77
CC(C)[C@H](NS(=O)(=O)c1ccc2c(c1)oc1ccc(-c3cnn(CCN4CCOCC4)c3)cc12)C(=O)O [Compound 158, (S)-3-methyl-2-(8-(1-(2-morpholinoethyl)-1H-pyrazol-4-yl)dibenzo[b,d]furan-3-sulfonamido)butanoic acid] | 223

Stronger by IC50, values ahead:

IC50 [nM] | Structure (SMILES)
11 | CC(C)[C@H](NS(=O)(=O)c1ccc2c(c1)oc1cc(-c3noc(C(C)(C)C)n3)ccc12)C(=O)O [Compound 155, (S)-2-(7-(5-tert-butyl-1,2,4-oxadiazol-3-yl)dibenzo[b,d]furan-3-sulfonamido)-3-methylbutanoic acid]
< 1.5 | CC(C)[C@H](NS(=O)(=O)c1ccc2c(c1)oc1ccc(-c3nc(C(F)(F)F)c(Cl)s3)cc12)C(=O)O [Compound 200, (S)-2-(8-(5-chloro-4-(trifluoromethyl)thiazol-2-yl)dibenzo[b,d]furan-3-sulfonamido)-3-methylbutanoic acid]
2.2 | CC(C)[C@@H](NS(=O)(=O)c1ccc2oc3cc(-c4noc(C5CCCC5)n4)ccc3c2c1)C(=O)O [Compound 190, (R)-2-(7-(5-cyclopentyl-1,2,4-oxadiazol-3-yl)dibenzo[b,d]furan-2-sulfonamido)-3-methylbutanoic acid]
4.8 | CC(C)[C@H](NS(=O)(=O)c1ccc2c(c1)sc1ccc(-c3ccoc3)cc12)C(=O)O [Compound 25, (S)-2-(8-(furan-3-yl)dibenzo[b,d]thiophene-3-sulfonamido)-3-methylbutanoic acid]
< 1.5 | COc1ccc(-c2ccc3oc4cc(S(=O)(=O)N[C@H](C(=O)O)C(C)C)ccc4c3c2)cc1 [Compound 310, (S)-2-(8-(4-methoxyphenyl)dibenzo[b,d]furan-3-sulfonamido)-3-methylbutanoic acid]
8.4 | CCc1ccc(-c2ccc3c(c2)oc2ccc(S(=O)(=O)N[C@H](C(=O)O)C(C)C)cc23)s1 [Compound 242, (S)-2-(7-(5-ethylthiophen-2-yl)dibenzo[b,d]furan-2-sulfonamido)-3-methylbutanoic acid]
17 | CC(C)C[C@@H](NS(=O)(=O)c1ccc2c(c1)oc1ccc(-c3noc(C(C)(C)C)n3)cc12)C(=O)O [Compound 253, (R)-2-(8-(5-tert-butyl-1,2,4-oxadiazol-3-yl)dibenzo[b,d]furan-3-sulfonamido)-4-methylpentanoic acid]

— patent publication US20100227859A1, “TRICYCLIC COMPOUNDS AS MATRIX METALLOPROTEINASE INHIBITORS” (priority 2007, published 2010)
